Source: ChEMBL document CHEMBL1201862, “PubChem BioAssay data set” (2004)
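Protocol summary: plate cells (96-well), add compound at 5 concentrations, incubate 48 h, interpolate endpoints linearly. GI50 marks 50% less growth.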 Calls of active or inactive are those of the source. Rule as the data show it: active = GI50 up to about 1.1 µM and inactive = higher.

How the values were obtained:
Experiment in all cases: NCI-60 cell line screen, 48 h
[1] = system: NCI-H460
[2] = system: UACC-62
[3] = system: Malme-3M
[4] = system: OVCAR-5
[5] = system: MOLT-4
[6] = system: OVCAR-3
[7] = system: SK-MEL-5
[8] = system: CCRF-CEM
[9] = system: OVCAR-4
[10] = system: BT-549
[11] = system: MDA-MB-231
[12] = system: NCI/ADR-RES
[13] = system: T47D
[14] = system: SF-268
[15] = system: NCI-H226
[16] = system: UACC-257
[17] = system: RPMI-8226
[18] = system: SNB-75
[19] = system: U-251
[20] = system: MDA-MB-435

Compound | GI50 [1] | GI50 [2] | GI50 [3] | GI50 [4] | GI50 [5] | GI50 [6] | GI50 [7] | GI50 [8] | GI50 [9] | GI50 [10] | GI50 [11] | GI50 [12] | GI50 [13] | GI50 [14] | GI50 [15] | GI50 [16] | GI50 [17] | GI50 [18] | GI50 [19] | GI50 [20]
CCOC1OC(C)(C=C(C#N)C#N)CCC1C (stereo not given) | 34.2 µM (inactive) | 38 µM (inactive) | 43.3 µM (inactive) | > 85.7 µM (inactive) | 33.3 µM (inactive) | 24.5 µM (inactive) | 53.8 µM (inactive) | 30.3 µM (inactive) | 49.3 µM (inactive) | 21.4 µM (inactive) | 88.1 µM (inactive) | 35.2 µM (inactive) | 44.2 µM (inactive) | 43.2 µM (inactive) | 23 µM (inactive) | > 71.6 µM (inactive) | 21 µM (inactive) | 14.6 µM (inactive) | 52.7 µM (inactive) | 39.1 µM (inactive)
CC[C@@]1(OP(=O)(O)O)C(=O)OCc2c1cc1n(c2=O)Cc2cc3ccccc3nc2-1 | 0.0308 µM (active) | 0.0381 µM (active) | 1.67 µM (inactive) | 0.231 µM (active) | 0.014 µM (active) | 2.73 µM (inactive) | 0.153 µM (active) | 0.00927 µM (active) | 1.76 µM (inactive) | 0.201 µM (active) | 3.37 µM (inactive) | 0.0718 µM (active) | 0.132 µM (active) | 0.0486 µM (active) | 0.179 µM (active) | 0.287 µM (active) | 0.0718 µM (active) | 0.16 µM (active) | 0.0603 µM (active) | 0.339 µM (active)
C=CCN(c1cc(O)c2c(c(C)cn2S(=O)(=O)c2ccccc2)c1[N+](=O)[O-])S(C)(=O)=O | 63.8 µM (inactive) | > 10 µM (inactive) | > 100 µM (inactive) | > 100 µM (inactive) | 42.4 µM (inactive) | 65.5 µM (inactive) | 51.4 µM (inactive) | > 100 µM (inactive) | > 100 µM (inactive) | > 100 µM (inactive) | > 100 µM (inactive) | > 100 µM (inactive) | 40.7 µM (inactive) | > 100 µM (inactive) | > 100 µM (inactive) | > 100 µM (inactive) | 61.2 µM (inactive) | > 100 µM (inactive) | > 100 µM (inactive) | 29.2 µM (inactive)
COc1ccc(C(=O)C#Cc2cnc(OC)nc2OC)cc1 | 2.65 µM (inactive) | 1.11 µM (active) | 1.67 µM (inactive) | 1.64 µM (inactive) | 0.0531 µM (active) | 1.68 µM (inactive) | 1.34 µM (inactive) | 0.13 µM (active) | 6.5 µM (inactive) | 1.6 µM (inactive) | 32400 µM (inactive) | 1.82 µM (inactive) | 1.89 µM (inactive) | 2.74 µM (inactive) | 1.47 µM (inactive) | 2.09 µM (inactive) | 1.93 µM (inactive) | 2.22 µM (inactive) | 1.33 µM (inactive) | 2.57 µM (inactive)
O=C1C([P+](c2ccccc2)(c2ccccc2)c2ccccc2)=C([O-])C(=Cc2ccc(Cl)c(Cl)c2)C([O-])=C1[P+](c1ccccc1)(c1ccccc1)c1ccccc1 | 2.89 µM (inactive) | 2.23 µM (inactive) | 2.34 µM (inactive) | 3.56 µM (inactive) | 0.421 µM (active) | 1.99 µM (inactive) | 2.34 µM (inactive) | 0.465 µM (active) | 2.97 µM (inactive) | 2.27 µM (inactive) | 2.96 µM (inactive) | 8.71 µM (inactive) | 3.37 µM (inactive) | 1.72 µM (inactive) | 3.44 µM (inactive) | 2.43 µM (inactive) | 1.22 µM (inactive) | 4.02 µM (inactive) | 2.47 µM (inactive) | 2.3 µM (inactive)
NC(=O)C1=NNc2ccccc2C(=O)N1c1ccccc1 | > 100 µM (inactive) | > 100 µM (inactive) | > 100 µM (inactive) | > 100 µM (inactive) | > 100 µM (inactive) | > 100 µM (inactive) | > 100 µM (inactive) | > 100 µM (inactive) | > 100 µM (inactive) | > 100 µM (inactive) | > 100 µM (inactive) | > 100 µM (inactive) | > 100 µM (inactive) | > 100 µM (inactive) | > 100 µM (inactive) | > 100 µM (inactive) | > 100 µM (inactive) | 14.5 µM (inactive) | > 100 µM (inactive) | > 100 µM (inactive)
C=Cc1ccccc1C1C(C(=O)OCC)=C(C)N=C2OC(C(=O)OC)C(=O)N21 (stereo not given) | > 100 µM (inactive) | > 100 µM (inactive) | > 100 µM (inactive) | > 100 µM (inactive) | > 100 µM (inactive) | > 100 µM (inactive) | > 100 µM (inactive) | > 100 µM (inactive) | > 100 µM (inactive) | > 100 µM (inactive) | > 100 µM (inactive) | > 100 µM (inactive) | > 100 µM (inactive) | > 100 µM (inactive) | > 100 µM (inactive) | > 100 µM (inactive) | > 100 µM (inactive) | > 100 µM (inactive) | > 100 µM (inactive) | > 100 µM (inactive)
O/N=C1/Nc2cc(Cl)ccc2C(=S)N2CSCC12 (stereo not given) | > 100 µM (inactive) | > 100 µM (inactive) | > 100 µM (inactive) | > 100 µM (inactive) | > 100 µM (inactive) | > 100 µM (inactive) | > 100 µM (inactive) | > 100 µM (inactive) | > 100 µM (inactive) | > 100 µM (inactive) | > 100 µM (inactive) | > 100 µM (inactive) | > 100 µM (inactive) | > 100 µM (inactive) | > 100 µM (inactive) | > 100 µM (inactive) | > 100 µM (inactive) | > 100 µM (inactive) | > 100 µM (inactive) | > 100 µM (inactive)
CC(=O)Nc1c(S(=O)(=O)c2ccccc2)c(C)c(C)n1Cc1ccccc1 | > 100 µM (inactive) | > 100 µM (inactive) | > 100 µM (inactive) | > 100 µM (inactive) | > 100 µM (inactive) | 52.8 µM (inactive) | 83.8 µM (inactive) | > 100 µM (inactive) | > 100 µM (inactive) | > 100 µM (inactive) | > 100 µM (inactive) | > 100 µM (inactive) | > 10 µM (inactive) | > 100 µM (inactive) | > 100 µM (inactive) | > 100 µM (inactive) | > 100 µM (inactive) | > 100 µM (inactive) | > 100 µM (inactive) | > 100 µM (inactive)
Cc1ccc(-c2nc(N/N=C/C=C/c3ccccc3)c3ccccc3n2)cc1 | 28.6 µM (inactive) | 17.1 µM (inactive) | 30 µM (inactive) | 17.4 µM (inactive) | > 100 µM (inactive) | 31.6 µM (inactive) | 14.8 µM (inactive) | > 100 µM (inactive) | 50.5 µM (inactive) | 23.1 µM (inactive) | 16.6 µM (inactive) | 72.9 µM (inactive) | 60.5 µM (inactive) | 33.5 µM (inactive) | > 100 µM (inactive) | 34 µM (inactive) | > 100 µM (inactive) | 33.6 µM (inactive) | 33.3 µM (inactive) | 52 µM (inactive)
C/C(=N\NC(=S)Nc1ccc([N+](=O)[O-])cc1)c1nc2cccnc2[nH]1 | 0.379 µM (active) | 0.447 µM (active) | 1.36 µM (inactive) | 1.08 µM (active) | 0.377 µM (active) | 0.299 µM (active) | 0.991 µM (active) | 0.381 µM (active) | 0.583 µM (active) | 0.452 µM (active) | 1.31 µM (inactive) | 1.13 µM (inactive) | 0.693 µM (active) | 0.278 µM (active) | 0.504 µM (active) | 0.565 µM (active) | 1.87 µM (inactive) | 1.38 µM (inactive) | 0.251 µM (active) | 1.34 µM (inactive)
N#CC(C#N)=C1CCCCc2ccc([N+](=O)[O-])cc21 | > 100 µM (inactive) | > 100 µM (inactive) | > 100 µM (inactive) | > 100 µM (inactive) | 41.8 µM (inactive) | 15.7 µM (inactive) | > 100 µM (inactive) | 40.5 µM (inactive) | > 100 µM (inactive) | > 100 µM (inactive) | > 100 µM (inactive) | > 100 µM (inactive) | 46.3 µM (inactive) | > 100 µM (inactive) | > 100 µM (inactive) | > 100 µM (inactive) | 31.2 µM (inactive) | > 100 µM (inactive) | 76.2 µM (inactive) | > 100 µM (inactive)
CCC1(OC(=O)CN2CCN(CCO)CC2)C(=O)OCc2c1cc1n(c2=O)Cc2cc3ccccc3nc2-1 (stereo not given) | 0.0614 µM (active) | 0.0759 µM (active) | 1.95 µM (inactive) | 1.1 µM (active) | 0.034 µM (active) | 1.96 µM (inactive) | 0.281 µM (active) | 0.0324 µM (active) | 1.77 µM (inactive) | 0.736 µM (active) | 14.1 µM (inactive) | 0.11 µM (active) | 0.212 µM (active) | 0.138 µM (active) | 0.329 µM (active) | 0.771 µM (active) | 0.962 µM (active) | 0.234 µM (active) | 0.143 µM (active) | 1.15 µM (inactive)
NC(=O)c1cccc([C@@H]2O[C@H](CO)[C@@H](O)[C@H]2O)c1 | 48.5 µM (inactive) | 29.1 µM (inactive) | > 100 µM (inactive) | 47.4 µM (inactive) | 1.23 µM (inactive) | 18.9 µM (inactive) | 32.2 µM (inactive) | 1.33 µM (inactive) | 5.45 µM (inactive) | 14.5 µM (inactive) | 77.1 µM (inactive) | 6.41 µM (inactive) | > 35.8 µM (inactive) | 6.81 µM (inactive) | 12.5 µM (inactive) | > 100 µM (inactive) | 4.42 µM (inactive) | 4.18 µM (inactive) | 11.5 µM (inactive) | > 49.2 µM (inactive)
